{"source": "PubChem BioAssay AID1259407", "about": "(Chemical Carcinogenesis Research Information System (CCRIS), 2018)", "tested_on": "CCRIS mutagenicity, Ames/micronucleus/aberration tests", "assay": "CCRIS mutagenicity studies", "settings": "Test System: AMES SALMONELLA TYPHIMURIUM, Method: STANDARD PLATE", "key": {"[1]": {"settings": "Strain/Indicator: TA100, Metabolic Activation: NONE"}, "[2]": {"settings": "Strain/Indicator: TA1535, Metabolic Activation: NONE"}}, "note": "The source made the active and inactive calls. How the calls were made is not given here.", "data": [{"smiles": "O=[N+]([O-])OCC(CO[N+](=O)[O-])O[N+](=O)[O-]", "values": [{"measurement": "mutagenic call", "setting": "Strain/Indicator: TA100(NR), Metabolic Activation: NONE", "value": "inactive; negative"}, {"measurement": "mutagenic call", "setting": "[1]", "value": "inactive; negative"}, {"measurement": "mutagenic call", "setting": "Strain/Indicator: TA102, Metabolic Activation: HAMSTER, LIVER, S-9, AROCLOR 1254", "value": "inactive; negative"}, {"measurement": "mutagenic call", "setting": "Strain/Indicator: TA102, Metabolic Activation: NONE", "value": "inactive; negative"}, {"measurement": "mutagenic call", "setting": "Strain/Indicator: TA1535, Metabolic Activation: HAMSTER, LIVER, S-9, AROCLOR 1254", "value": "active; positive"}, {"measurement": "mutagenic call", "setting": "[2]", "value": "active; positive"}, {"measurement": "mutagenic call", "setting": "Strain/Indicator: TA1538, Metabolic Activation: NONE", "value": "inactive; negative"}, {"measurement": "mutagenic call", "setting": "Strain/Indicator: TA1975, Metabolic Activation: NONE", "value": "inactive; negative"}, {"measurement": "mutagenic call", "setting": "Strain/Indicator: YG1026, Metabolic Activation: NONE", "value": "inactive; negative"}]}, {"smiles": "CCCCC1CO1", "note": "(stereo unspecified)", "values": [{"measurement": "mutagenic call", "setting": "[1]", "value": "inactive; negative"}, {"measurement": "mutagenic call", "setting": "[2]", "value": "inactive; negative"}]}]}
